{"source": "patent US10933035B2", "about": "“Antimicrobial silicone-based wound dressings” (Covalon Technologies Inc., priority 2010, dated 2021)", "origin": "cited, not measured here", "conditions": "20° C.", "data": [{"compound": "[H]/N=C(\\N/C(=N/[H])NCCCCCCNC(=N)NC(=N)Nc1ccc(Cl)cc1)Nc1ccc(Cl)cc1", "note": "[Chlorhexidine]", "values": [{"measurement": "Solubility in water", "value": 0.008, "unit": "% wt/vol"}]}]}
